Laboratory results as given in patent US12071436B2, “Anti-parasitic compounds and uses thereof” (Memorial Sloan-Kettering Cancer Center, priority 2016, dated 2024).
Like-named read-outs stand apart in the source and are kept apart here.

Legend:
[1] = tested on: Trypanosoma cruzi parasites; assay: Trypanosoma cruzi in vitro IC50 (structure-activity analyses); format: cell-based; settings: infection with Trypanosoma cruzi parasites for 72 hours and treatment with the compound for 72 hours
Description: Select compounds described herein were evaluated for structure-activity analyses in vitro.

Cytotoxicity (Table 1) = format: cell-based
Plasma stability = format: in vitro ADME; settings: C57BL/6; 10 μM in undiluted mouse plasma, 37° C., out to four hours; read-out: plasma stability (t1/2, mouse)
Description: To evaluate the plasma stability of selected compounds, 10 μM of each selected compound was incubated with undiluted plasma. Plasma was freshly obtained from C57BBl\6 mice drawn in the vivarium and used immediately. Plasma was brought to 37° C. within a 96-well plate and then the compound is introduced via a DMSO stock solution. The sample was continually shaken at 37° C. and aliquots are removed at multiple time points out to four hours. Aliquots were added to acetonitrile (5× v:v) to stop any enzymatic activity and held on ice. At the end of the assay, the samples were centrifuged through a Millipore Multiscreen Solvinter 0.45 micron low binding PTFE hydrophilic filter plate and analyzed by LC-MS/MS. Data was log transformed and represented as half-life.

[2] = Hepatic microsomal stability, 1 mg/mL hepatic microsomes; format: in vitro ADME; settings: C57BL/6, mouse, liver microsomes, pH 7.4, 1 μM compound, NADPH, read-out: microsomal stability (t1/2, mouse): 1 mg/mL hepatic microsomes
Description: To evaluate the hepatic microsomal stability of selected compounds, 1 μM of each selected compound was incubated with 1 mg/mL hepatic microsomes in 100 mM KPi, pH 7.4. The microsomes were obtained from C57BL/6 mice. The reaction was initiated by adding NADPH (1 mM final concentration). Aliquots were removed at 0, 5, 10, 20, 40, and 60 minutes and added to acetonitrile (5× v:v) to stop the reaction and precipitate the protein. NADPH dependence of the reaction is evaluated with —NADPH samples. At the end of the assay, the samples were centrifuged through a Millipore Multiscreen Solvinter 0.45 micron low binding PTFE hydrophilic filter plate and analyzed by LC-MS/MS. Data was log transformed and represented as half-life.

[3] = Parallel artificial membrane permeability assay (PAMPA), commercial kit; format: in vitro ADME; settings: PBS, room temperature, read-out: Parallel artificial membrane permeability assay (PAMPA) Permeability (log Pe [cm/s]) (converted)
Description: To evaluate the Parallel Artificial Membrane Permeability Assay (PAMPA) of selected compounds, an assessment of permeability was done using a commercial PAMPA kit. Selected compounds were evaluated over a range of concentrations by 300 μl of PBS containing the compound to the bottom donor plate. Selected compounds were from DMSO stocks and the final DMSO concentration in the donor wells was one percent. 200 μl of blank PBS was added to the top receiver plate. The plates were allowed to incubate at room temperature. After 5 hours, aliquots were taken from the donor and receiver plates and the concentration of drug was determined. Compound permeability was calculated using the equation [formula] where Pe is expressed in units of cm/s, CA(t) is drug concentration in the acceptor at time t, VD is donor well volume, VA is acceptor well volume, A is the area of the filter (0.3 cm^2), t is time in seconds, and Ceq=[CD(t)*VD+CA(t)*VA]/(VD+VA).

[4] = Plasma protein binding by equilibrium dialysis; format: in vitro ADME; settings: mouse, 37° C.
Description: To evaluate the plasma protein binding of selected compounds, equilibrium dialysis was used. All samples of the selected compounds were tested in triplicate using the RED Rapid Equilibrium Dialysis Device (Thermo Scientific). The initial drug concentration in the plasma chamber was 5 μM and phosphate buffered saline was added to the receiver chamber. The plate was covered and allowed to shake in a 37° C. incubator for 6 hours. 25 μl was sampled from the plasma and PBS chambers which were then diluted with either blank PBS or plasma to achieve a 1:1 ratio or plasma:PBS for all samples. The concentration of drug in the plasma and PBS chambers were determined by LC-MS/MS. The fraction bound was calculated as ([plasma]−[PBS])/[plasma].

[5] = Plasma pharmacokinetics in female BALB/c mice (ip and po); format: in vivo, mouse; settings: 50 mg/kg; for bioavailability / AUC / Cmax / half-life: female, BALB/c, mice; for bioavailability / AUC / Cmax / half-life / Tmax: mouse, plasma; for bioavailability: oral, read-out: Relative Bioavailability, Frel (po/ip); for Tmax / plasma concentrations quantifiable till: female BALB/c mice
Description: To evaluate the plasma pharmacokinetics of selected compounds, a group of eighteen female mice were administered divided into two groups; Group 1 (intraperitoneal (i.p.)) and Group 2 (oral administration (p.o.)) with compound 21 or compound 37 solution formulation at a dose of 50 mg/kg by both the routes in 5% NMP, 5% Solutol and 90% Normal saline. Blood samples (approximately […]) were collected from retro orbital plexus of each mouse under light isoflurane anesthesia such that the samples were obtained at 0.083, 0.25, 0.5, 1, 2, 4, 8, 12 and 24 hours (i.p.); and pre-dose, 0.25, 0.5, 1, 2, 4, 8, 12 and 24 hour (p.o.). The blood samples were collected from a set of three mice at each time point in labeled micro centrifuge tube containing K2EDTA as anticoagulant. Plasma samples were separated by centrifugation at 4000 rpm for 10 min and stored below −70° C. until bioanalysis. After collection of blood sample, animals were humanely euthanized by carbon dioxide asphyxiation to collect liver and heart from Group 1 and Group 2 at 1, 8 and 24 hours. The collected tissues were rinsed in PBS and were homogenized with cold phosphate buffer saline (pH 7.4) of nine times the weight of liver and two times the weight of heart tissue and stored below −70° C. until bio-analysis. Total volume was ten and three times the tissue weights of liver and heart, respectively. All samples were processed for analysis by protein precipitation using acetonitrile and analyzed with fit-for-purpose LC-MS/MS method (LLOQ: 1.01 ng/mL for plasma; 20.20 ng/g for liver and 6.06 ng/g for heart tissue). […] Exemplary results for compounds 21 (2015-FoleyC-021) and 37 (2015-FoleyC-037) are shown above in Table 2.

[6] = ip, read-out: PK (ip, 50 mg/kg) Area under the curve (AUC)
[7] = ip, read-out: PK (ip, 50 mg/kg) Cmax
[8] = ip, read-out: PK (ip, 50 mg/kg) t1/2 (converted)
[9] = po, read-out: PK (po, 50 mg/kg) AUC
[10] = po, read-out: PK (po, 50 mg/kg) Cmax
[11] = po, read-out: PK (po, 50 mg/kg) t1/2 (converted)
[12] = ip, single intraperitoneal dose

Row | IC50 [1] [µM] | half-life at 10 μM (Plasma stability) [h] | half-life at 1 μM [2] [min] | Papp at 5 h [3] [nm/s] | fraction unbound at 6 h, 5 μM [4] | bioavailability [5] [%] | AUC [5, 6] [µM·h] | Cmax [5, 7] [µM] | half-life [5, 8] [h] | AUC [5, 9] [µM·h] | Cmax [5, 10] [µM] | half-life [5, 11] [h] | Tmax [5, 12] [h] | Tmax ([5]; single oral dose) [h] | plasma concentrations quantifiable till ([5]; single intraperitoneal dose) [h] | plasma concentrations quantifiable till ([5]; single oral dose) [h] | Structure (SMILES) | Cytotoxicity (Cytotoxicity (Table 1)) [µM]
1 | 0.054 | > 4 | 3.9 | 0.55 | 0.045 | 48 | 50.1 | 19.8 | 2.8 | 24.3 | 11.8 | 3.5 | 0.25 | 1 | 24 | 24 | CN(C)CC#Cc1cccc(-c2nc(C(=O)NCc3ccc4c(c3)OCO4)cc3c2[C@@H](CCO)N([S@+]([O-])C(C)(C)C)C3)c1 [compound 21, (R)-N-(Benzo[d][1,3]dioxol-5-ylmethyl)-2-((R)-tert-butylsulfinyl)-4-(3-(3-(dimethyl-amino)prop-1-yn-1-yl)phenyl)-3-(2-hydroxyethyl)-2,3-dihydro-1H-pyrrolo[3,4-c]pyridine-6-carboxamide] | >10
2 | 0.048 | > 4 | 1.3 | 57.5 | 0.081 | 47 | 11.1 | 6.8 | 6.3 | 5.2 | 1.7 | 4.3 | 0.25 | 1 | 24 | 24 | CN(C)CC#Cc1cccc(-c2nc(C(=O)N[C@@H]3CCN(Cc4ccccc4)C3)cc3c2[C@@H](CCO)N([S@+]([O-])C(C)(C)C)C3)c1 [compound 37, (R)-N-((R)-1-Benzylpyrrolidin-3-yl)-2-((R)-tert-butylsulfinyl)-4-(3-(3-(dimethylamino)prop-1-yn-1-yl)phenyl)-3-(2-hydroxyethyl)-2,3-dihydro-1H-pyrrolo[3,4-c]pyridine-6-carboxamide] | >10
